Measurements: patent US12528786B2, “Plasma kallikrein inhibitors” (Merck Sharp & Dohme LLC, priority 2020, dated 2026)

Target: T1, Human plasma kallikrein (Homo sapiens, UniProt P03952)
T1 construct: yields a heavy chain (371 amino acids) and a light chain (248 amino acids); purchased Enzyme Research Laboratories
Experiment: Kallikrein Assay (fluorogenic substrate hydrolysis, AFC release)
Format: biochemical
Conditions: purified Human plasma kallikrein 0.5 nM; substrate Acetyl-K—P—R-AFC 100 mM; 50 mM HEPES pH 7.4
Experimental: The effectiveness of a compound of the present invention as an inhibitor of Kallikrein can be determined using a relevant purified serine protease, and an appropriate synthetic substrate. The rate of hydrolysis of the chromogenic or fluorogenic substrate by the relevant serine protease was measured both in the absence and presence of compounds of the present invention. Assays were conducted at room temperature or at 37° C. […] A decrease in the rate of fluorescence change in the presence of inhibitor is indicative of enzyme inhibition. Such methods are known to one skilled in the art. The results of this assay are expressed as the half-maximal inhibitory concentrations (IC50), or the inhibitory constant, Ki.
Kallikrein determinations were made in 50 mM HEPES buffer at pH 7.4 containing 150 mM NaCl, 5 mM CaCl2), and 0.1% PEG 8000 (polyethylene glycol; Fisher Scientific). Determinations were made using purified Human plasma kallikrein at a final concentration of 0.5 nM (Enzyme Research Laboratories) and the synthetic substrate, Acetyl-K—P—R-AFC (Sigma #C6608) at a concentration of […].
Activity assays were performed by diluting a stock solution of substrate at least tenfold to a final concentration ≤0.2 Km into a solution containing enzyme or enzyme equilibrated with inhibitor. Times required to achieve equilibration between enzyme and inhibitor were determined in control experiments. The reactions were performed under linear progress curve conditions and fluorescence increase measured at 405 Ex/510 Em nm. Values were converted to percent inhibition of the control reaction (after subtracting 100% Inhibition value). IC50 was determined by inflection point from a four parameter logistic curve fit. Ki was calculated using the Cheng Prusoff equation, Ki=IC50/(1+([S]/Km)).

T1 sequence (P03952 391-638 limits assumed): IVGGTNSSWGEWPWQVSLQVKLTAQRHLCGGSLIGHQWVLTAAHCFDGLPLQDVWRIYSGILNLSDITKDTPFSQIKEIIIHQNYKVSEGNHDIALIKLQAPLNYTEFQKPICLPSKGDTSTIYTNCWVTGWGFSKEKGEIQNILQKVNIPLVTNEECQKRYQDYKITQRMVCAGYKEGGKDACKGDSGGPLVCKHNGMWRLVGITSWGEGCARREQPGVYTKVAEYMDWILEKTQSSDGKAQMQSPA
T1 sequence (P03952 20-390 partner limits assumed): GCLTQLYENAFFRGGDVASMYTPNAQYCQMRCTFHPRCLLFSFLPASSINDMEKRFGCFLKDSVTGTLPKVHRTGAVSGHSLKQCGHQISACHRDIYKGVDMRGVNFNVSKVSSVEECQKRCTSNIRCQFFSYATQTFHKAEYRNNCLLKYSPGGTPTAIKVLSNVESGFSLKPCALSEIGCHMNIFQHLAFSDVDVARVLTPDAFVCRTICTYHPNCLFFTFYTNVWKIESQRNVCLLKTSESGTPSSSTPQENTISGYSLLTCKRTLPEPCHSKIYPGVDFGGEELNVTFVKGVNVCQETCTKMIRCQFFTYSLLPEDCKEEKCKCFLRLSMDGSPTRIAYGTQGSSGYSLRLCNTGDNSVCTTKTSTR

IC50 | Compound
14.6 nM | Cc1cc(N2C[C@H]3C[C@H]3C2=O)ncc1C(C)n1cc(C(=O)N[C@H]2C[C@@H](c3cc(Cl)ccc3OC(F)F)C2)nn1 (single isomer, unassigned) [Example 70, N-((cis)-3-(5-chloro-2-(difluoromethoxy)phenyl)cyclobutyl)-1-((S or R)-1-(4-methyl-6-((1R,5S)-2-oxo-3-azabicyclo[3.1.0]hexan-3-yl)pyridin-3-yl)ethyl)-1H-1,2,3-triazole-4-carboxamide]
1.7 nM | Cc1cc(N2C[C@H]3C[C@H]3C2=O)ncc1C1(n2cc(C(=O)N[C@H]3C[C@@H](c4cc(Cl)ccc4C#N)C3)cn2)CC1 [Example 159, N-((cis)-3-(5-chloro-2-cyanophenyl)cyclobutyl)-1-(1-(4-methyl-6-((1R,5S)-2-oxo-3-azabicyclo[3.1.0]hexan-3-yl)pyridin-3-yl)cyclopropyl)-1H-pyrazole-4-carboxamide]
0.6 nM | [2H][C@]1(NC(=O)c2cn([C@@H](C)c3cnc(N4C[C@H]5C[C@H]5C4=O)cc3C)nn2)C[C@@H](c2cc(Cl)ccc2C#N)C1 [Example 148, N-((cis)-3-(5-chloro-2-cyanophenyl)cyclobutyl-1-d)-1-((S)-1-(4-methyl-6-((1R,5S)-2-oxo-3-azabicyclo[3.1.0]hexan-3-yl)pyridin-3-yl)ethyl)-1H-1,2,3-triazole-4-carboxamide]
1.1 nM | Cc1c(C(C)n2cc(C(=O)N[C@H]3C[C@@H](c4cc(Cl)ccc4C#N)C3)nn2)cnc(N2C[C@H]3C[C@H]3C2=O)c1C (single isomer, unassigned) [Example 86, N-((cis)-3-(5-chloro-2-cyanophenyl)cyclobutyl)-1-((R or S)-1-(4,5-dimethyl-6-((1R,5S)-2-oxo-3-azabicyclo[3.1.0]hexan-3-yl)pyridin-3-yl)ethyl)-1H-1,2,3-triazole-4-carboxamide]
25.3 nM | Cc1cc(N2C[C@H]3C[C@H]3C2=O)cnc1C(C)n1cc(C(=O)N[C@H]2C[C@@H](c3cc(Cl)ccc3C#N)C2)cn1 (single isomer, unassigned) [Example 25, N-((cis)-3-(5-chloro-2-cyanophenyl)cyclobutyl)-1-((S or R)-1-(3-methyl-5-((1R,5S)-2-oxo-3-azabicyclo[3.1.0]hexan-3-yl)pyridin-2-yl)ethyl)-1H-pyrazole-4-carboxamide]
1.4 nM | Cc1ccc(C#N)c([C@H]2C[C@@H](NC(=O)c3cn(C(C)c4cnc(N5C[C@H]6C[C@H]6C5=O)c(F)c4C)nn3)C2)n1 (single isomer, unassigned) [Example 136, N-((cis)-3-(3-cyano-6-methylpyridin-2-yl)cyclobutyl)-1-((S or R)-1-(5-fluoro-4-methyl-6-((1R,5S)-2-oxo-3-azabicyclo[3.1.0]hexan-3-yl)pyridin-3-yl)ethyl)-1H-1,2,3-triazole-4-carboxamide]
239 nM | Cc1cc(N2C[C@H]3C[C@H]3C2=O)nnc1C(C)n1cc(C(=O)N[C@H]2C[C@@H](c3cc(Cl)ccc3C#N)C2)cn1 (single isomer, unassigned) [Example 54, N-((cis)-3-(5-chloro-2-cyanophenyl)cyclobutyl)-1-((S or R)-1-(4-methyl-6-((1R,5S)-2-oxo-3-azabicyclo[3.1.0]hexan-3-yl)pyridazin-3-yl)ethyl)-1H-pyrazole-4-carboxamide]
3 nM | COc1nc(C(C)n2cc(C(=O)N[C@H]3C[C@@H](c4cc(Cl)ccc4C#N)C3)nn2)cnc1N1C[C@H]2C[C@H]2C1=O (single isomer, unassigned) [Example 122, N-((cis)-3-(5-chloro-2-cyanophenyl)cyclobutyl)-1-((S or R)-1-(6-methoxy-5-((1R,5S)-2-oxo-3-azabicyclo[3.1.0]hexan-3-yl)pyrazin-2-yl)ethyl)-1H-1,2,3-triazole-4-carboxamide]
8.1 nM | C[C@H](c1cnc(N2C[C@H]3C[C@H]3C2=O)nc1)n1cc(C(=O)N[C@H]2C[C@@H](c3cc(Cl)ccc3C#N)C2)nn1 (single isomer, unassigned) [Example 77]
0.2 nM | Cc1nc(C(C)n2cc(C(=O)N[C@H]3C[C@@](C)(c4cc(Cl)ccc4C#N)C3)nn2)cnc1N1C[C@H]2C[C@H]2C1=O (single isomer, unassigned) [Example 109, N-((cis)-3-(5-chloro-2-cyanophenyl)-3-methylcyclobutyl)-1-((R or S)-1-(6-methyl-5-((1R,5S)-2-oxo-3-azabicyclo[3.1.0]hexan-3-yl)pyrazin-2-yl)ethyl)-1H-1,2,3-triazole-4-carboxamide]
41.3 nM | Cc1c(C(C)n2cc(C(=O)NC3CC(c4cccc(Cl)c4)C3O)nn2)cnc(N2C[C@H]3C[C@H]3C2=O)c1F (single isomer, unassigned) [Example 123, N-((1R,2R,3R or 1S,2S,3S)-3-(3-chlorophenyl)-2-hydroxycyclobutyl)-1-((R or S)-1-(5-fluoro-4-methyl-6-((1R,5S)-2-oxo-3-azabicyclo[3.1.0]hexan-3-yl)pyridin-3-yl)ethyl)-1H-1,2,3-triazole-4-carboxamide]
0.7 nM | Cc1cc([C@@H](C)n2cc(C(=O)N[C@H]3C[C@@H](c4cc(Cl)ccc4C#N)C3)cn2)cnc1N1C[C@H]2C[C@H]2C1=O (single isomer, unassigned) [Example 6]
0.4 nM | Cc1c([C@H](C)n2cc(C(=O)N[C@H]3C[C@@](C)(c4cc(Cl)ccc4C(N)=O)C3)nn2)cnc(N2C[C@H]3C[C@H]3C2=O)c1C [Example 142, N-((cis)-3-(2-carbamoyl-5-chlorophenyl)-3-methylcyclobutyl)-1-((S)-1-(4,5-dimethyl-6-((1R,5S)-2-oxo-3-azabicyclo[3.1.0]hexan-3-yl)pyridin-3-yl)ethyl)-1H-1,2,3-triazole-4-carboxamide]
105 nM | Cc1nc(N2C[C@H]3C[C@H]3C2=O)ncc1C(C)n1cc(C(=O)N[C@H]2C[C@@H](c3cc(Cl)ccc3C#N)C2)nn1 (single isomer, unassigned) [Example 80, N-((cis)-3-(5-chloro-2-cyanophenyl)cyclobutyl)-1-((R or S)-1-(4-methyl-2-((1R,5S)-2-oxo-3-azabicyclo[3.1.0]hexan-3-yl)pyrimidin-5-yl)ethyl)-1H-1,2,3-triazole-4-carboxamide]
15.9 nM | Cc1cc(N2C[C@H]3C[C@H]3C2=O)ncc1C(C)n1cc(C(=O)N[C@H]2C[C@@](C)(c3cc(Cl)ccc3C#N)C2)nn1 (single isomer, unassigned) [Example 64, N-((cis)-3-(5-chloro-2-cyanophenyl)-3-methylcyclobutyl)-1-((R or S)-1-(4-methyl-6-((1R,5S)-2-oxo-3-azabicyclo[3.1.0]hexan-3-yl)pyridin-3-yl)ethyl)-1H-1,2,3-triazole-4-carboxamide]
126 nM | [2H]C1(NC(=O)c2cn([C@@H](C)c3cnc(N4C[C@H]5C[C@H]5C4=O)cc3C)nn2)CC(C)(c2cc(Cl)ccc2C#N)C1 (single isomer, unassigned) [Example 145, N-((cis or trans)-3-(5-chloro-2-cyanophenyl)-3-methylcyclobutyl-1-d)-1-((S)-1-(4-methyl-6-((1R,5S)-2-oxo-3-azabicyclo[3.1.0]hexan-3-yl)pyridin-3-yl)ethyl)-1H-1,2,3-triazole-4-carboxamide]
28 nM | N#Cc1ccc(Cl)cc1[C@H]1C[C@@H](NC(=O)c2cn([C@H](CO)c3ccc(N4C[C@H]5C[C@H]5C4=O)nc3)nn2)C1 (single isomer, unassigned) [Example 155]
0.8 nM | Cc1cc(N2C[C@H]3C[C@H]3C2=O)ncc1[C@@H](C)n1cc(C(=O)NC2CC(c3cc(Cl)ccc3C#N)C2)c([C@H](C)O)n1 (single isomer, unassigned) [Example 169]
0.9 nM | Cc1c([C@H](C)n2cc(C(=O)N[C@H]3C[C@@H](c4cc(Cl)ccc4C(N)=O)C3)nn2)cnc(N2C[C@H]3C[C@H]3C2=O)c1C [Example 158]
3.2 nM | COc1cc(C(C)n2cc(C(=O)N[C@H]3C[C@@H](c4cc(Cl)ccc4C#N)C3)nn2)cnc1N1C[C@H]2C[C@H]2C1=O (single isomer, unassigned) [Example 102, N-((cis)-3-(5-chloro-2-cyanophenyl)cyclobutyl)-1-((S or R)-1-(5-methoxy-6-((1R,5S)-2-oxo-3-azabicyclo[3.1.0]hexan-3-yl)pyridin-3-yl)ethyl)-1H-1,2,3-triazole-4-carboxamide]

Compound | IC50
N-((cis)-3-(5-chloro-2-cyanophenyl)cyclobutyl)-1-((R)-3-((1R,5S)-2-oxo-3-azabicyclo[3.1.0]hexan-3-yl)-6,7-dihydro-5H-cyclopenta[c]pyridin-7-yl)-1H-1,2,3-triazole-4-carboxamide and N-((cis)-3-(5-chloro-2-cyanophenyl)cyclobutyl)-1-((S)-3-((1R,5S)-2-oxo-3-azabicyclo[3.1.0]hexan-3-yl)-6,7-dihydro-5H-cyclopenta[c]pyridin-7-yl)-1H-1,2,3-triazole-4-carboxamide [Example 153] | 23.9 nM
